Where “and” joins values, the source holds several entries; their conditions need not be identical. Identical values can stand only once. A value given as a limit tells only on which side of the number the result lay.

The first data set has as its system promastigotes of L. amazonensis. The experiment in a line: Growth inhibition of promastigote forms of L. amazonensis (MTT). It is filed as cell-based, Leishmania amazonensis. Particulars: 72 h, 26 °C. Here is the method:
(§1) The in vitro tests utilized Leishmania amazonensis parasites (IFLA/BR/67/PH8). These leishmania cell lines were obtained from Oswaldo Cruz Foundation (FIOCRUZ)/Brazil. The promastigote forms were cultivated in Schneider’s insect medium at 26 °C in a biological oxygen demand (BOD) incubator. Schneider’s insect medium was supplemented with 20% fetal bovine serum (FBS) and 1% penicillin (100 U/mL) and streptomycin (µg/mL) (complete Schneider). Next, we differentiated them from promastigote forms by changing the conditions to Schneider’s insect medium supplemented with 5% FBS, pH 4.6, and a temperature of 32 °C to obtain axenic amastigote forms of L. amazonensis. Meanwhile, RAW 264.7 macrophages were cultured in […] cell culture flasks using DMEM medium supplemented with 10% FBS, 1% penicillin 100 U/mL, and 100 μg/mL streptomycin (complete DMEM) and incubated at 37 °C and 5% CO2.
Parasite growth inhibition was evaluated using the methodology described by Rodrigues et al. (2015). Cultures of logarithmically growing promastigote and axenic amastigote forms (1 × 10^6 parasites/mL) were incubated in 96-well plates containing 100 µL of supplemented Schneider’s medium in triplicate. Serial concentrations of 2-amino-thiophene and 2-amino-selenophene derivatives (10.00–0.156 μM) and the reference drugs meglumine antimoniate (500–40,000 μg/mL), amphoterecinB (0.1–2 μM), and pentamidine (3.12–100 µM) were added. BNP was used as a negative control. The cultures were incubated in a biological oxygen demand oven (model Eletrolab EL202, São Paulo, Brazil) at 26 °C for promastigotes and 32 °C for axenic amastigotes for 72 h. Then, 10 μL of MTT (5 mg/mL) was added to each well to colorimetrically evaluate growth inhibition. The plate was subsequently incubated for a further 4 h, followed by adding 50 μL of 10% sodium dodecyl sulfate solution for […] before the optical density of the culture was read on a microplate spectrophotometer reader. The reading was taken at the test and reference wavelengths of 540 and 620 nm using a microplate spectrophotometer. The negative control consisted of 0.2% […] with BNP, considered to be 100% viable.
For orientation: IC50 means the midpoint of a concentration-inhibition curve. The compound `N#Cc1c(/N=C/c2c[nH]c3cccc([N+](=O)[O-])c23)[se]c2c1CCCC2` [Compound 34] came in with an IC50 of 2.14 µM.
Take `Cc1ccc2[nH]cc(/C=N/c3[se]c4c(c3C#N)CCCC4)c2c1` [Compound 35]: the “IC50 Promastigotes” value is “not active up to the highest concentration evaluated”.
On to `Cc1cccc2c(/C=N/c3[se]c4c(c3C#N)CCCC4)c[nH]c12` [Compound 36], for which the IC50 is 2.92 µM.
Same read-out and setting: the value for `N#Cc1c(/N=C/c2c[nH]c3ccc(Br)cc23)[se]c2c1CCCC2` [Compound 38] was 3.49 µM; that for `COc1cccc2[nH]cc(/C=N/c3[se]c4c(c3C#N)CCCC4)c12` [Compound 39] was 2.15 µM.
For the compound `COc1ccc2[nH]cc(/C=N/c3[se]c4c(c3C#N)CCCC4)c2c1` [Compound 40], the “IC50 Promastigotes” value was “not active up to the highest concentration evaluated”.
As to “Meglumine antimoniate [reference compound]”, the IC50 is 70.3 µM and 58.9 µM and 67.9 µM.

The data set is the same for the next values; noted with them: Leishmania amazonensis, 72 h, 26 °C.
Consider `CCOC(=O)c1c(N)sc2c1CCC2` [Compound 9], for which the 50% inhibitory concentration (IC50) was more than 10 µM.
The same measure, in the same setting: the value for `CCOC(=O)c1c(N)sc2c1CCCC2` [Compound 10] was more than 10 µM; that for `CCOC(=O)c1c(N)sc2c1CCCCC2` [Compound 11] was more than 10 µM; that for `N#Cc1ccc2[nH]cc(/C=N/c3[se]c4c(c3C#N)CCCC4)c2c1` [Compound 33] was 9.32 µM.
Same read-out and setting: the value for `N#Cc1c(/N=C/c2c[nH]c3cccc([N+](=O)[O-])c23)[se]c2c1CCCC2` [Compound 34] was less than 3.5 µM.
For `Cc1ccc2[nH]cc(/C=N/c3[se]c4c(c3C#N)CCCC4)c2c1` [Compound 35], the IC50 was more than 10 µM.
On the same count and under the same terms, the value for `Cc1cccc2c(/C=N/c3[se]c4c(c3C#N)CCCC4)c[nH]c12` [Compound 36] was less than 3.5 µM; that for `N#Cc1c(/N=C/c2c[nH]c3cccc(Br)c23)[se]c2c1CCCC2` [Compound 37] was 4.5 µM; that for `N#Cc1c(/N=C/c2c[nH]c3ccc(Br)cc23)[se]c2c1CCCC2` [Compound 38] was less than 3.5 µM.
Same read-out and setting: the value for `COc1cccc2[nH]cc(/C=N/c3[se]c4c(c3C#N)CCCC4)c12` [Compound 39] was less than 3.5 µM.
The same measure, in the same setting: the value for `COc1ccc2[nH]cc(/C=N/c3[se]c4c(c3C#N)CCCC4)c2c1` [Compound 40] was more than 10 µM.
For the compound `N=C(N)c1ccc(OCCCCCOc2ccc(C(=N)N)cc2)cc1` [Pentamidine, reference compound], the midpoint of inhibition, the IC50, lay at 42.3 µM.

Tested on in the next data set: not listed separately
The experiment in a line: Cytotoxicity in macrophages (MTT). The note with it: mouse, RAW 264.7 macrophages. It is filed as cell-based. Here is the method:
as §1
First, 100 μL DMEM medium complete with 1 × 10^6 macrophages (RAW 264.7) was added to each well of a 96-well plate. RAW 264.7 macrophages were obtain from ATCC: code TIB-71^TM. The plate was placed in an incubator (37 °C, 5% CO2) (Sanyo, model COM-15A, Sanyo Electric Co., Osaka, Japan) for 4 h to promote cell adhesion. After this period, two washes were conducted with previously heated DMEM medium (37 °C) to remove non-adhered cells. 2-amino-thiophene and 2-amino-selenophene derivatives were added to wells at serial concentrations of 400 to 25 µM and then incubated for 48 h. Next, 10 μL of MTT at a […] of 5 mg/mL were added to each well and incubated for 4 h. The plate was then shaken for 30 min and read at the test and reference wavelengths of 550 and 620 nm, respectively, in a plate reader. DMEM medium supplemented with 0.5% DMSO was used as a negative control and considered as 100% macrophage viability. The selectivity index for each treatment was calculated as the ratio between the concentration of cytotoxicity of RAW 264.7 macrophages (CC50) and the 50% inhibitory concentration (IC50) or effective concentration (EC50), as measured for the different evolutionary forms of L. amazonensis.
A word on the CC50: it is the concentration at which the toxic effect on the cells reaches its halfway point. Low readings indicate greater toxicity to the cells, high ones lower toxicity to the cells. Regarding `N#Cc1ccc2[nH]cc(/C=N/c3[se]c4c(c3C#N)CCCC4)c2c1` [Compound 33], the CC50 at 48 h is 203 µM.
Same read-out and setting: the value for `N#Cc1c(/N=C/c2c[nH]c3cccc([N+](=O)[O-])c23)[se]c2c1CCCC2` [Compound 34] was 189 µM; that for `Cc1cccc2c(/C=N/c3[se]c4c(c3C#N)CCCC4)c[nH]c12` [Compound 36] was 186 µM.
Same read-out and setting: the value for `N#Cc1c(/N=C/c2c[nH]c3cccc(Br)c23)[se]c2c1CCCC2` [Compound 37] was 242 µM; that for `N#Cc1c(/N=C/c2c[nH]c3ccc(Br)cc23)[se]c2c1CCCC2` [Compound 38] was 239 µM; that for `COc1cccc2[nH]cc(/C=N/c3[se]c4c(c3C#N)CCCC4)c12` [Compound 39] was 178 µM.
In turn, `N=C(N)c1ccc(OCCCCCOc2ccc(C(=N)N)cc2)cc1` [Pentamidine, reference compound] had a CC50 at 48 h of 294 µM. This CC50 at 48 h is about 1.7-fold higher than that of the compound before.

The test system of another data set is axenic amastigotes of L. amazonensis.
Test: not given
Particulars: L. amazonensis amastigotes; previously published; read-out: IC50 Amastigotes; cited from earlier work.
With `N#Cc1c(/N=C/c2c[nH]c3ccccc23)sc2c1CCCCC2` [SB-44, reference compound], the IC50 is 15.8 µM.

The same data set, now with this note: L. amazonensis amastigotes; read-out: EC50 against amastigotes; cited from earlier work.
In general, EC50 refers to the concentration that produces a half-maximal response. As to `N#Cc1c(/N=C/c2c[nH]c3ccccc23)sc2c1CCCCC2` [SB-44, reference compound], the EC50 is 15.8 µM.

Still in this data set, the particulars now being: L. amazonensis axenic amastigotes; previously published; cited from earlier work.
Consider `N#Cc1c(/N=C/c2c[nH]c3ccc(Br)cc23)sc2c1CCC2` [Compound 25], for which the “IC50 Amastigotes” value was “inactive against the two evolutionary forms”.
On to `N#Cc1c(/N=C/c2c[nH]c3ccc(Br)cc23)sc2c1CCCCCCCCCC2` [Compound 26], for which the “IC50 Amastigotes” value was “inactive against the two evolutionary forms”.

Still in this data set, the particulars now being: L. amazonensis axenic amastigotes; previously published; read-out: IC50 Amastigotes; cited from earlier work.
As to `N#Cc1c(/N=C/c2c[nH]c3ccc(Br)cc23)sc2c1CCC2` [Compound 25], the IC50 is more than 10 µM.
As to `N#Cc1c(/N=C/c2c[nH]c3ccc(Br)cc23)sc2c1CCCCCCCCCC2` [Compound 26], the IC50 is more than 10 µM.
For `N#Cc1c(/N=C/c2c[nH]c3ccc(Br)cc23)sc2c1CCNC2` [Compound 30], the IC50 was more than 10 µM.

Staying with this data set, now noted: L. amazonensis; read-out: IC50 against axenic amastigotes; cited from earlier work.
In the case of `N#Cc1c(/N=C/c2c[nH]c3cccc(Br)c23)sc2c1CCCCCC2` [Compound 42, reference compound], the 50% inhibitory concentration (IC50) is 1.7 µM and 1.71 µM.
Consider “Meglumine antimoniate [reference compound]”, for which the IC50 is 2.77 µM.

The next data set concerns promastigotes of L. amazonensis.
Test: not given
Particulars: L. amazonensis promastigotes, sensitive strain; read-out: IC50 anti-promastigote; cited from earlier work.
For the compound `Cc1ccc2[nH]cc(/C=N/c3sc4c(c3C#N)CCCC4)c2c1` [TN6-1, reference compound], the IC50 was 7.2 µM.
Regarding `N#Cc1c(/N=C/c2c[nH]c3ccccc23)sc2c1CCCCC2` [TN7, reference compound], the IC50 was 10 µM.

Still in this data set, the particulars now being: L. amazonensis promastigotes; previously published; cited from earlier work.
As to `N#Cc1c(/N=C/c2c[nH]c3ccc(Br)cc23)sc2c1CCC2` [Compound 25], the “IC50 Promastigotes” value was “inactive against the two evolutionary forms”.
`N#Cc1c(/N=C/c2c[nH]c3ccc(Br)cc23)sc2c1CCCCCCCCCC2` [Compound 26]: the “IC50 Promastigotes” value is “inactive against the two evolutionary forms”.

Staying with this data set, now noted: L. amazonensis promastigotes; previously published; read-out: IC50 Promastigotes; cited from earlier work.
As to `N#Cc1c(N)sc2c1CCCC2` [Compound 5], the IC50 was more than 10 µM.
As to `N#Cc1c(/N=C/c2c[nH]c3ccc(Br)cc23)sc2c1CCC2` [Compound 25], the IC50 is more than 10 µM.
In the case of `N#Cc1c(/N=C/c2c[nH]c3ccc(Br)cc23)sc2c1CCCCCCCCCC2` [Compound 26], the IC50 was more than 10 µM.
`N#Cc1c(/N=C/c2c[nH]c3ccc(Br)cc23)sc2c1CCNC2` [Compound 30]: the IC50 was more than 10 µM.
As to `N#Cc1c(/N=C/c2c[nH]c3ccccc23)sc2c1CCCCC2` [SB-44, reference compound], the IC50 is 7.3 µM and 7.37 µM.

Still in this data set, the particulars now being: L. amazonensis; read-out: IC50 against promastigotes; cited from earlier work.
As to `N#Cc1c(/N=C/c2c[nH]c3cccc(Br)c23)sc2c1CCCCCC2` [Compound 42, reference compound], the IC50 was 2.9 µM and 2.97 µM.
As to “Meglumine antimoniate [reference compound]”, the IC50 was 70.3 µM.

The values above are taken from publication PMC11768359, “2-Aminothiophene Derivatives—New Drug Candidates Against Leishmaniasis: Drug Design, Synthesis, Pharmacomodulation, and Antileishmanial Activity” (Pharmaceuticals, 2025).
